Our source for the Kd values is patent US20260200893A1, “INHIBITORS OF PROCASPASE-6 ACTIVATION AND USES THEREOF” (THE REGENTS OF THE UNIVERSITY OF CALIFORNIA, priority 2022, published 2026).

The Kd is the concentration at which binding is half-saturated.

In this assay the target is T1, procaspase-6 (Homo sapiens, UniProt P55212).
T1 sequence (P55212 1-293): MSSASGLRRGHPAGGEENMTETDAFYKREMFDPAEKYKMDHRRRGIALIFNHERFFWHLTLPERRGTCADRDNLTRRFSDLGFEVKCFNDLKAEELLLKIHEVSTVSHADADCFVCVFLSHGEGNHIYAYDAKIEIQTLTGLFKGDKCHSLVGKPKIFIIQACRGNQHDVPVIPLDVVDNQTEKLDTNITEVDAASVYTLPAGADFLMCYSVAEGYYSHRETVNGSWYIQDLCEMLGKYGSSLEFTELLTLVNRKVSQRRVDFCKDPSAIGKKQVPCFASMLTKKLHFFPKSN
The experiment in a line: SPR binding affinity for procaspase-6 (avi-tagged, biotinylated construct on neutravidin chip, Biacore 8K). The note with it: binding affinities for procaspase-6, SPR. An excerpt: We used SPR to assess the binding affinity of test compounds, using an avi-tagged (biotinylated) procaspase-6 construct that was captured onto a neutravidin-coated sensor chip in a Biacore 8K instrument. […] The average of the triplicate KD values for each analog was furthermore used to calculate the experimental binding energies (ΔG) provided in the figures that follow.
As to `c1ccc(-c2cccnc2NCc2cccc3cc[nH]c23)nc1` [ELG-000463], the Kd fell in the range of 50 to 100 µM.

Consider `c1ccc(-c2cccnc2NCc2cccc3ccoc23)nc1` [ELG-000468, N-(benzofuran-7-ylmethyl)-[2,3′-bipyridin]-2′-amine], for which the Kd is 50 to 100 µM.

`Fc1ccc(CNc2ncccc2-c2ccccn2)c2occc12` [ELG-000469, N-((4-fluorobenzofuran-7-yl)methyl)-[2,3′-bipyridin]-2′-amine] registered a Kd of 50 to 100 µM.

For `c1ccc(-c2cccnc2NCc2cccc3cn[nH]c23)nc1` [ELG-000472, N-((1H-indazol-7-yl)methyl)-[2,3′-bipyridin]-2′-amine], the Kd lay in the range of 50 to 100 µM.

Molecule `Fc1ccc(CNc2ncccc2-c2cccnn2)c2occc12` [ELG-000481, N-((4-fluorobenzofuran-7-yl)methyl)-3-(pyridazin-3-yl)pyridin-2-amine] came in with a Kd of 10 to 50 µM.

On to `Fc1ccc(CNc2ncccc2-c2ccccn2)c2[nH]ccc12` [ELG-000483], for which the Kd fell in the range of 50 to 100 µM.

On to `c1cnnc(-c2cccnc2NCc2cccc3ccoc23)c1` [ELG-000488, N-(benzofuran-7-ylmethyl)-3-(pyridazin-3-yl) pyridin-2-amine], for which the Kd was in the range of 10 to 50 µM.

For `c1cnnc(-c2cccnc2NCc2cccc3ocnc23)c1` [ELG-000491, N-(benzo[d]oxazol-4-ylmethyl)-3-(pyridazin-3-yl)pyridin-2-amine], the Kd was below 10 µM.

For `c1ccc(-c2cccnc2NCc2cccc3ocnc23)nc1` [ELG-000497], the dissociation constant (Kd) is 50 to 100 µM.

Molecule `Fc1ccc(CNc2ncccc2-c2ccccn2)c2[nH]ncc12` [ELG-000499, N-((4-fluoro-1H-indazol-7-yl)methyl)-[2,3′-bipyridin]-2′-amine] registered a Kd below 10 µM.

On to `c1cnnc(-c2cccnc2NCc2cccc3ccsc23)c1` [ELG-000502, N-(benzo[b]thiophen-7-ylmethyl)-3-(pyridazin-3-yl)pyridin-2-amine], for which the Kd was 10 to 50 µM.

As to `Fc1ccc(CNc2ncccc2-c2cccnn2)c2[nH]ccc12` [ELG-000504, N-((4-fluoro-1H-indol-7-yl)methyl)-3-(pyridazin-3-yl)pyridin-2-amine], the Kd was below 10 µM.

As to `Fc1ccc(CNc2ncccc2-c2cccnn2)c2[nH]ncc12` [ELG-000506, N-((4-fluoro-1H-indazol-7-yl)methyl)-3-(pyridazin-3-yl)pyridin-2-amine], the Kd is below 10 µM.

For `c1cnnc(-c2cccnc2NCc2cccc3scnc23)c1` [ELG-000507, N-(benzo[d]thiazol-4-ylmethyl)-3-(pyridazin-3-yl)pyridin-2-amine], the Kd was below 10 µM.

As to `c1ccc(-c2cccnc2NCc2cccc3ccsc23)nc1` [ELG-000510, N-(benzo[b]thiophen-7-ylmethyl)-[2,3′-bipyridin]-2′-amine], the Kd was 50 to 100 µM.

Regarding `c1ccc(-c2cccnc2NCc2cccc3scnc23)nc1` [ELG-000511], the Kd lay in the range of 50 to 100 µM.

With `Fc1ccc(CNc2ncccc2-c2cccnn2)c2sccc12` [ELG-000515, N-((4-fluorobenzo[b]thiophen-7-yl)methyl)-3-(pyridazin-3-yl)pyridin-2-amine], the dissociation constant (Kd) was below 10 µM.

On to `Fc1ccc(CNc2ncccc2-c2ccccn2)c2sccc12` [ELG-000518], for which the Kd fell in the range of 50 to 100 µM.

Take `Fc1ccc(CNc2ncccc2-c2cccnn2)c2ncsc12` [ELG-000522, N-((7-fluorobenzo[d]thiazol-4-yl)methyl)-3-(pyridazin-3-yl)pyridin-2-amine]: the Kd was below 10 µM.

With `c1cnc(NCc2cccc3cc[nH]c23)c(-c2ncc[nH]2)c1` [ELG-000523, N-((1H-indol-7-yl)methyl)-3-(1H-imidazol-2-yl)pyridin-2-amine], the Kd was 10 to 50 µM.

Regarding `Fc1ccc(CNc2ncccc2-c2ncc[nH]2)c2[nH]ncc12` [ELG-000525, N-((4-fluoro-1H-indazol-7-yl)methyl)-3-(1H-imidazol-2-yl)pyridin-2-amine], the Kd is below 10 µM.

`Fc1ccc(CNc2ncccc2-c2ncc[nH]2)c2ncsc12` [ELG-000526, N-((7-fluorobenzo[d]thiazol-4-yl)methyl)-3-(1H-imidazol-2-yl)pyridin-2-amine] had a Kd of 10 to 50 µM.

On to `Fc1ccc(CNc2ncccc2-c2ncc[nH]2)c2sccc12` [ELG-000530, N-((4-fluorobenzo[b]thiophen-7-yl)methyl)-3-(1H-imidazol-2-yl)pyridin-2-amine], for which the Kd lay within 10 to 50 µM.

The molecule `c1cnc(NCc2cccc3scnc23)c(-c2ncc[nH]2)c1` [ELG-000531, N-(benzo[d]thiazol-4-ylmethyl)-3-(1H-imidazol-2-yl)pyridin-2-amine] came in with a Kd of 50 to 100 µM.

With `Fc1ccc(CNc2ncccc2-c2cccnn2)c2sncc12` [ELG-000532, N-((4-fluorobenzo[d]isothiazol-7-yl)methyl)-3-(pyridazin-3-yl)pyridin-2-amine], the Kd fell in the range of 10 to 50 µM.

`c1cnc(NCc2cccc3ccsc23)c(-c2ncc[nH]2)c1` [ELG-000534, N-(benzo[b]thiophen-7-ylmethyl)-3-(1H-imidazol-2-yl)pyridin-2-amine]: the Kd is above 100 µM.

Take `c1cnc(NCc2cccc3ccoc23)c(-c2ncc[nH]2)c1` [ELG-000535]: the Kd fell in the range of 50 to 100 µM.

In turn, `Fc1ccc(CNc2ncccc2-c2ncc[nH]2)c2[nH]ccc12` [ELG-000536, N-((4-fluoro-1H-indol-7-yl)methyl)-3-(1H-imidazol-2-yl)pyridine-2-amine] had a Kd of 10 to 50 µM.

On to `c1cnc(NCc2cccc3ocnc23)c(-c2ncc[nH]2)c1` [ELG-000537, N-(benzo[d]oxazol-4-ylmethyl)-3-(1H-imidazol-2-yl)pyridin-2-amine], for which the Kd lay in the range of 50 to 100 µM.

In the case of `c1cnc(NCc2cccc3cn[nH]c23)c(-c2ncc[nH]2)c1` [ELG-000538, N-((1H-indazol-7-yl)methyl)-3-(1H-imidazol-2-yl)pyridin-2-amine], the Kd fell in the range of 10 to 50 µM.

For `Fc1ccc(CNc2ncccc2-c2ncc[nH]2)c2sncc12` [ELG-000548], the Kd lay in the range of 50 to 100 µM.

Take `Fc1ccc(CNc2ncccc2-c2ccccn2)c2sncc12` [ELG-000549, N-((4-fluorobenzo[d]isothiazol-7-yl)methyl)-[2,3′-bipyridin]-2′-amine]: the Kd was above 100 µM.

In turn, `c1ccc(-c2cccnc2NCc2cccc3cnsc23)nc1` [ELG-000552, N-(benzo[d]isothiazol-7-ylmethyl)-[2,3′-bipyridin]-2′-amine] showed a Kd of 50 to 100 µM.

`c1cnc(NCc2cccc3cnsc23)c(-c2ncc[nH]2)c1` [ELG-000558] came in with a dissociation constant Kd of 50 to 100 µM.

Molecule `c1cnnc(-c2cccnc2NCc2cccc3cnsc23)c1` [ELG-000559] returned a Kd of 50 to 100 µM.

Molecule `c1cnc(NCc2cccc3cnoc23)c(-c2ncc[nH]2)c1` [ELG-000560, N-(benzo[d]isoxazol-7-ylmethyl)-3-(1H-imidazol-2-yl)pyridin-2-amine] had a Kd of 10 to 50 µM.

In turn, `c1cnnc(-c2cccnc2NCc2cccc3cnoc23)c1` [ELG-000563] showed a Kd of 50 to 100 µM.

For the molecule `c1ccc(-c2cccnc2NCc2cccc3cnoc23)nc1` [ELG-000567, N-(benzo[d]isoxazol-7-ylmethyl)-[2,3′-bipyridin]-2′-amine], the Kd lay in the range of 50 to 100 µM.
